Measurements reported in patent US20100324086A1, “COMPOUNDS AND METHODS” (Novasaid AB, priority 2008, published 2010).

Molecular target: T1, recombinant, membrane-bound mPGES-1 (Homo sapiens, UniProt O14684)
T1 sequence (O14684 1-152): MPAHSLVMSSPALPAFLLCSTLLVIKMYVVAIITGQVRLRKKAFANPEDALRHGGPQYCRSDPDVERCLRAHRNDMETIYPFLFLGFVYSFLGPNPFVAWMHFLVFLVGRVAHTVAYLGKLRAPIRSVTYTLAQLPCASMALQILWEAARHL
Experiment: Thiobarbituric acid assay (TBA-MDA assay), inhibition of mPGES-1
Assay type: biochemical
Conditions: remaining PGH2 measured at 535 nm
Excerpt: Malondialdehyde is a product of lipid peroxidation and reacts with thiobarbituric acid forming a red product that absorbs at 535 nm (W. G. Niehaus, Jr and B. Samuelsson, Eur. J. Biochem 6, 126 (1968). The extinction coefficient of the TBA-MDA conjugate is 1.56×10^5 M^−1 cm^−1 (E. D. Wills. Biochem. J. 113, 315 (1969).
The method used for detection of inhibition of mPGES-1 is based on the detection of the amount of remaining PGH2. This method was described more than 20 years ago by Basevich et al (Bioorg. Khim. 1983, 9(5), 658-665.
The assay used was a modified variant and used citric acid instead of the TCA-TBA-HCl reagent described in the original assay. In this assay recombinant, membrane-bound mPGES-1 was incubated with PGH2. The reaction was stopped by adding citric acid with a final pH of 3 and a large excess of FeCl2 (20 mM) to convert any remaining PGH2 into MDA and […]. TBA reagent was finally added (0.67%) and the samples were heated at 80° C. for 30 min. The absorbance of the conjugate was measured at 535 nm.
The product of mPGES-1 (PGE2) was not measured directly in this assay, but rather the remaining substrate (PGH2) indirectly by adding FeCl2 that converts PGH2 into […] and 12-HHT. As a positive control a known mPGES-1 inhibitor, MK-886, was used and the new inhibitors were compared with the inhibition of MK-886 (% of MK-886 inhibition).

Row | Compound | IC50 [nM]
1 | O=C(NCc1ccccc1)c1cccc(NC(=O)c2ccccc2Cl)c1 [Compound 2, 3-(2-Chloro-benzoylamino)-N-benzyl-benzamide] | 5800
2 | Cc1cc(NC(=O)c2cccc(NC(=O)c3ccccc3Cl)c2)c2ccccc2n1 [Compound 3, 3-(2-Chloro-benzoylamino)-N-(2-methyl-quinolin-4-yl)-benzamide] | 1100
3 | CCCCNC(=O)c1cccc(NC(=O)c2ccccc2Cl)c1 [Compound 4, 3-(2-Chloro-benzoylamino)-N-butyl-benzamide] | 3900
4 | O=C(NC(c1ccccc1)c1ccccc1)c1cccc(NC(=O)c2ccccc2Cl)c1 [Compound 6, 3-(2-Chloro-benzoylamino)-N-(diphenylyl-methyl)-benzamide] | 300
5 | O=C(Nc1ccc2ccccc2n1)c1cccc(NC(=O)c2ccccc2Cl)c1 [Compound 9, 3-(2-Chloro-benzoylamino)-N-(quinolin-2-yl-)-benzamide] | 600
6 | O=C(Nc1ccccn1)c1cccc(NC(=O)c2ccccc2Cl)c1 [Compound 12, 3-(2-Chloro-benzoylamino)-N-(pyridine-2-yl)-benzamide] | 1300
7 | O=C(Nc1nc2ccccc2[nH]1)c1cccc(NC(=O)c2ccccc2Cl)c1 [Compound 13, 3-(2-Chloro-benzoylamino)-N-(1H-benzimidazol-2-yl)-benzamide] | 1300
8 | O=C(Nc1ccc2ncsc2c1)c1cccc(NC(=O)c2ccccc2Cl)c1 [Compound 14, 3-(2-Chloro-benzoylamino)-N-(benzothiazol-6-yl)-benzamide] | 900
9 | O=C(Nc1cccc(C(=O)Nc2ccc3ccccc3n2)c1)c1ccccc1 [Compound 17, 3-Benzoylamino-N-quinolin-2-yl-benzamide] | 3500
10 | O=C(Nc1cccc(C(=O)Nc2ccc3ccccc3n2)c1)c1cccc(Cl)c1 [Compound 29, 3-(3-Chloro-benzoylamino)-N-quinolin-2-yl-benzamide] | 4200
11 | O=C(NC1CCCc2ccccc21)c1cccc(NC(=O)c2ccccc2Cl)c1 (stereo not drawn) [Compound 35, 3-(2-Chloro-benzoylamino)-N-(1,2,3,4-tetrahydro-naphthalen-1-yl)-benzamide] | 860
12 | O=C(NC1CCCCCC1)c1cccc(NC(=O)c2ccccc2Cl)c1 [Compound 36, 3-(2-Chloro-benzoylamino)-N-cycloheptyl-benzamide] | 330
13 | O=C(Nc1ccc2ccccc2n1)c1cccc(NC(=O)c2ccccc2Br)c1 [Compound 38, 3-(2-Bromo-benzoylamino)-N-quinolin-2-yl-benzamide] | 140
14 | O=C(Nc1ccc2ccccc2n1)c1cccc(NC(=O)c2c(Cl)cccc2Cl)c1 [Compound 40, 3-(2,6-Chloro-benzoylamino)-N-quinolin-2-yl-benzamide] | 800
15 | COc1ccccc1C(=O)Nc1cccc(C(=O)Nc2ccc3ccccc3n2)c1 [Compound 41, 3-(2-Methoxy-benzoylamino)-N-quinolin-2-yl-benzamide] | 3700
16 | COc1cccc(OC)c1C(=O)Nc1cccc(C(=O)Nc2ccc3ccccc3n2)c1 [Compound 42, 3-(2,6-Dimethoxy-benzoylamino)-N-quinolin-2-yl-benzamide] | 3100
17 | O=C(Nc1ccc2ccccc2n1)c1cccc(NC(=O)c2ccccc2C(F)(F)F)c1 [Compound 43, 3-(2-Trifluoromethyl-benzoylamino)-N-quinolin-2-yl-benzamide] | 190
18 | Cc1ccccc1C(=O)Nc1cccc(C(=O)Nc2ccc3ccccc3n2)c1 [Compound 44, 3-(2-Methyl-benzoylamino)-N-quinolin-2-yl-benzamide] | 650
19 | O=C(Nc1ccc2ccccc2n1)c1cccc(NC(=O)c2ccccc2I)c1 [Compound 46, 3-(2-Iodo-benzoylamino)-N-quinolin-2-yl-benzamide] | 290
20 | O=C(Nc1ccc2ccccc2n1)c1cccc(NC(=O)c2ccccc2-c2cccs2)c1 [Compound 49, 3-(2-Thiophene-2-yl-benzoylamino)-N-quinolin-2-yl-benzamide] | 1200
21 | CC(=O)Oc1ccccc1C(=O)Nc1cccc(C(=O)Nc2ccc3ccccc3n2)c1 [Compound 50, Acetic acid 2-[3-(quinolin-2-ylcarbamoyl)-phenylcarbamoyl]-phenyl ester] | 3000
22 | CCc1ccccc1C(=O)Nc1cccc(C(=O)Nc2ccc3ccccc3n2)c1 [Compound 52, 3-(2-Ethyl-benzoylamino)-N-quinolin-2-yl-benzamide] | 6900
23 | O=C(Nc1ccc2ccccc2n1)c1cccc(NC(=O)c2ccccc2[N+](=O)[O-])c1 [Compound 53, 3-(2-Nitro-benzoylamino)-N-quinolin-2-yl-benzamide] | 500

More lines, now with the values ahead:

Row | IC50 [nM] | Compound
24 | 1200 | O=C(Nc1cccc(C(=O)NC2CCCCCC2)c1)c1cc(C(F)(F)F)cc(C(F)(F)F)c1 [Compound 54, N-(3-Cycloheptylcarbamoyl-phenyl)-3,5-bis-trifluoromethyl-benzamide]
25 | 630 | O=C(NC1CCCCCC1)c1cccc(NC(=O)c2c(Cl)cccc2Cl)c1 [Compound 55, 2,6-Dichloro-N-(3-cycloheptylcarbamoyl-phenyl)-benzamide]
26 | 660 | O=C(NC1CCCCCC1)c1cccc(NC(=O)c2ccccc2C(F)(F)F)c1 [Compound 56, N-(3-Cycloheptylcarbamoyl-phenyl)-2-trifluoromethylbenzamide]
27 | 390 | Cc1ccccc1C(=O)Nc1cccc(C(=O)NC2CCCCCC2)c1 [Compound 57, N-(3-Cycloheptylcarbamoyl-phenyl)-2-methylbenzamide]
28 | 460 | O=C(NC1CCCCCC1)c1cccc(NC(=O)c2ccccc2F)c1 [Compound 63, N-(3-Cycloheptylcarbamoyl-phenyl)-2-fluorobenzamide]
29 | 6900 | COc1cccc(OC)c1C(=O)Nc1cccc(C(=O)NC2CCCCCC2)c1 [Compound 65, N-(3-Cycloheptylcarbamoyl-phenyl)-2,6-dimethoxy-benzamide]
30 | 9900 | CC(=O)Oc1ccccc1C(=O)Nc1cccc(C(=O)NC2CCCCCC2)c1 [Compound 66, Acetic acid 2-(3-cycloheptylcarbamoyl-phenylcarbamoyl)-phenyl ester]
31 | 180 | O=C(NC1CCCCCC1)c1cccc(NC(=O)c2ccccc2Br)c1 [Compound 68, 2-Bromo-N-(3-cycloheptylcarbamoyl-phenyl)-benzamide]
32 | 260 | O=C(NC1CCCCCC1)c1cccc(NC(=O)c2ccccc2I)c1 [Compound 69, N-(3-Cycloheptylcarbamoyl-phenyl)-2-iodo-benzamide]
33 | 230 | C[C@H](NC(=O)c1cccc(NC(=O)c2ccccc2Br)c1)c1cccc2ccccc12 [Compound 72, 2-Bromo-N-[3-((S)-1-naphthalen-1-yl-ethylcarbamoyl)-phenyl]-benzamide]
34 | 1800 | C[C@H](NC(=O)c1cccc(NC(=O)c2ccccc2F)c1)c1cccc2ccccc12 [Compound 73, 2-Fluoro-N-[3-((S)-1-naphthalen-1-yl-ethylcarbamoyl)-phenyl]-benzamide]
35 | 470 | C[C@H](NC(=O)c1cccc(NC(=O)c2c(Cl)cccc2Cl)c1)c1cccc2ccccc12 [Compound 74, 2,6-Dichloro-N-[3-((S)-1-naphthalen-1-yl-ethylcarbamoyl)-phenyl]-benzamide]
36 | 4100 | COc1cccc(OC)c1C(=O)Nc1cccc(C(=O)N[C@@H](C)c2cccc3ccccc23)c1 [Compound 76, 2,6-Dimethoxy-N-[3-((S)-1-naphthalen-1-yl-ethylcarbamoyl)-phenyl]-benzamide]
37 | 690 | Cc1ccccc1C(=O)Nc1cccc(C(=O)N[C@@H](C)c2cccc3ccccc23)c1 [Compound 78, 2-Methyl-N-[3-((S)-1-naphthalen-1-yl-ethylcarbamoyl)-phenyl]-benzamide]
38 | 370 | C[C@H](NC(=O)c1cccc(NC(=O)c2ccccc2Cl)c1)c1cccc2ccccc12 [Compound 85, 2-Chloro-N-[3-((S)-1-naphthalen-1-yl-ethylcarbamoyl)-phenyl]-benzamide]
39 | 380 | C[C@@H](NC(=O)c1cccc(NC(=O)c2ccccc2Br)c1)c1cccc2ccccc12 [Compound 87, 2-Bromo-N-[3-((R)-1-naphthalen-1-yl-ethylcarbamoyl)-phenyl]-benzamide]
40 | 2300 | C[C@@H](NC(=O)c1cccc(NC(=O)c2ccccc2F)c1)c1cccc2ccccc12 [Compound 88, 2-Fluoro-N-[3-((R)-1-naphthalen-1-yl-ethylcarbamoyl)-phenyl]-benzamide]
41 | 600 | C[C@@H](NC(=O)c1cccc(NC(=O)c2c(Cl)cccc2Cl)c1)c1cccc2ccccc12 [Compound 89, 2,6-Dichloro-N-[3-((R)-1-naphthalen-1-yl-ethylcarbamoyl)-phenyl]-benzamide]
42 | 1300 | COc1cccc(OC)c1C(=O)Nc1cccc(C(=O)N[C@H](C)c2cccc3ccccc23)c1 [Compound 92, 2,6-Dimethoxy-N-[3-((R)-1-naphthalen-1-yl-ethylcarbamoyl)-phenyl]-benzamide]
